Results reported in BindingDB's records for doi:10.1016/j.bmcl.2016.07.066 (Presidio Pharmaceuticals, 2016).

Experiments:
[1] = Inhibition of HCV genotype 1a replicons NS5A infected in human Huh7 cells by luciferase reporter gene assay
[2] = Inhibition of HCV genotype 3a replicons NS5A infected in human Huh7 cells by luciferase reporter gene assay
[3] = Inhibition of HCV genotype 1b replicons NS5A infected in human Huh7 cells by luciferase reporter gene assay
[4] = Inhibition of HCV genotype 3a replicon NS5A
[5] = Inhibition of HCV genotype 1a replicon NS5A S2204I mutant infected in human Huh7 cells
[6] = Inhibition of HCV genotype 1b replicon NS5A S2204I mutant infected in human Huh7 cells

Structure (SMILES)	EC50 [1] [nM]	EC50 [2] [nM]	EC50 [3] [nM]	EC50 [4] [nM]	EC50 [5] [nM]	EC50 [6] [nM]
COC(=O)N[C@H](NC(=O)N1CCC[C@H]1c1nc2ccc(-c3ccc4cc(-c5cnc([C@@H]6CCCN6C(=O)[C@@H](NC(=O)OC)C6CCOCC6)[nH]5)ccc4c3)cc2[nH]1)C1CCOCC1	0.13	1.1	0.113			
COC(=O)N[C@H](NC(=O)N1CCC[C@H]1c1nc2ccc(-c3ccc4cc(-c5cnc([C@@H]6CCCN6C(=O)[C@H](NC(=O)OC)c6ccccc6)[nH]5)ccc4c3)cc2[nH]1)C(C)C	0.22	0.03	0.014			
COC(=O)N[C@H](NC(=O)N1CCC[C@H]1c1nc2ccc(-c3ccc4cc(-c5cnc([C@@H]6CCCN6C(=O)[C@@H](NC(=O)OC)[C@@H](C)OC)[nH]5)ccc4c3)cc2[nH]1)[C@@H](C)OC	0.13	1.5	0.047			
COC(=O)N[C@H](NC(=O)N1CCC[C@H]1c1nc2ccc(-c3ccc4cc(-c5cnc([C@@H]6CCCN6C(=O)[C@@H](NC(=O)OC)C(C)C)[nH]5)ccc4n3)cc2[nH]1)C(C)C	0.26	1.1	0.042			
COC(=O)N[C@H](NC(=O)N1CCC[C@H]1c1nc2cnc(-c3ccc4cc(-c5cnc([C@@H]6CCCN6C(=O)[C@@H](NC(=O)OC)C(C)C)[nH]5)ccc4c3)cc2[nH]1)C(C)C	1.2	15	0.052			
CC[C@H](C)[C@H](NC(=O)OC)NC(=O)N1CCC[C@H]1c1nc2ccc(-c3ccc4cc(-c5cnc([C@@H]6CCCN6C(=O)[C@@H](NC(=O)OC)[C@@H](C)CC)[nH]5)ccc4c3)cc2[nH]1	0.11	2.3	0.015			
COC(=O)N[C@H](NC(=O)N1CCC[C@H]1c1ncc(-c2ccc(-c3ccc(-c4cnc([C@@H]5CCCN5C(=O)[C@@H](NC(=O)OC)C(C)C)[nH]4)cc3)cc2)[nH]1)C(C)C	0.14	0.67	0.073	0.146	0.05	0.009
CC[C@@H](C)[C@H](NC(=O)OC)NC(=O)N1CCC[C@H]1c1nc2ccc(-c3ccc4cc(-c5cnc([C@@H]6CCCN6C(=O)[C@@H](NC(=O)OC)[C@H](C)CC)[nH]5)ccc4c3)cc2[nH]1	0.6	9.5	0.009			
COC(=O)N[C@H](NC(=O)N1CCC[C@H]1c1nc2ncc(-c3ccc4cc(-c5cnc([C@@H]6CCCN6C(=O)[C@@H](NC(=O)OC)C(C)C)[nH]5)ccc4c3)cc2[nH]1)C(C)C	0.23	6.6	0.026			

Continued by falling EC50 [1], values first:

EC50 [1] [nM]	EC50 [2] [nM]	EC50 [3] [nM]	Structure (SMILES)	EC50 [4] [nM]	EC50 [5] [nM]	EC50 [6] [nM]
0.11	0.06	0.011	COC(=O)N[C@@H](NC(=O)N1CCC[C@H]1c1nc2ccc(-c3ccc4cc(-c5cnc([C@@H]6CCCN6C(=O)[C@@H](NC(=O)OC)C(C)C)[nH]5)ccc4c3)cc2[nH]1)c1ccccc1			
0.1	1.6	0.022	COC(=O)N[C@H](NC(=O)N1CCC[C@H]1c1nc2ccc(-c3ccc4cc(-c5cnc([C@@H]6CCCN6C(=O)[C@@H](NC(=O)OC)[C@@H](C)OC)[nH]5)ccc4c3)cc2[nH]1)C(C)C			
0.08	2.1	0.025	COC(=O)N[C@H](NC(=O)N1CCC[C@H]1c1nc2ccc(-c3ccc4cc(-c5cnc([C@@H]6CCCN6C(=O)[C@@H](NC(=O)OC)C(C)C)[nH]5)ccc4c3)nc2[nH]1)C(C)C			
0.08	0.89	0.03	COC(=O)N[C@H](NC(=O)N1CCC[C@H]1c1nc2ccc(-c3ccc4cc(-c5cnc([C@@H]6CCCN6C(=O)[C@@H](NC(=O)OC)C6CCOCC6)[nH]5)ccc4c3)cc2[nH]1)C(C)C			
0.07	1	0.015	CC[C@H](C)[C@H](NC(=O)OC)NC(=O)N1CCC[C@H]1c1nc2ccc(-c3ccc4cc(-c5cnc([C@@H]6CCCN6C(=O)[C@@H](NC(=O)OC)[C@@H](C)OC)[nH]5)ccc4c3)cc2[nH]1			
0.05	0.86	0.023	COC(=O)N[C@H](NC(=O)N1CCC[C@H]1c1nc2ccc(-c3ccc4cc(-c5cnc([C@@H]6CCCN6C(=O)[C@@H](NC(=O)OC)C(C)C)[nH]5)ccc4c3)cc2[nH]1)C1CCOCC1			
0.05	2.4	0.003	COC(=O)N[C@H](NC(=O)N1CCC[C@H]1c1nc2ccc(-c3ccc4cc(-c5cnc([C@@H]6CCCN6C(=O)[C@@H](NC(=O)OC)C6CCCC6)[nH]5)ccc4c3)cc2[nH]1)C1CCCC1			
